The target in test [1] is T1, Avi-KRAS G12D (1-169) GppNHp/RAF1 RBD-3xFLAG (52-151) (Homo sapiens, UniProt P01116, G12D).
T1 construct: Avi-KRAS G12D (1-169)
Put plainly: Raf1-KRAS G12D-GppNHP disruption HTRF assay (Biological Example 1). It is filed as binding. The settings on record: KRAS G12D-GppNHp/RAF1 RBD HTRF. The method, boiled down:
(§1)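 Measured with a KRAS/RAF1 HTRF assay at pH 7.5 in 10% DMSO, with two 1 h room-temperature incubations with shaking.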
On the technique in general: In TR-FRET formats the signal depends on donor and acceptor labels being close together.

In test [2] the test system is SW620 cells (KRAS G12V). Put plainly: Cell-based pERK HTRF assay in SW620 cell (Biological Example 4). The settings on record: Homo sapiens, SW-620, SW620 (KRAS G12V) cells, pERK HTRF. The method, boiled down: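 This assay measures inhibition of ERK phosphorylation downstream of KRAS G12V in intact SW620 cells. Compounds are applied for 4 h over nine half-log concentrations starting at 1 μM, and pERK is quantified by HTRF.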

In test [3] the test system is GP2d cells (KRAS G12D). Put plainly: Cell-based pERK HTRF assay in GP2d cell (Biological Example 2). The settings on record: GP2d, GP2d (KRAS G12D) cells, pERK HTRF. The method, boiled down: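 GP2d (KRAS G12D) cells were plated in DMEM/10% FBS and treated the next day for 60 min with compounds. Dosing used 9-point half-log series starting at 1 μM or 100 nM in 0.25% DMSO. Lysates were read by HTRF pERK (d2/Eu cryptate antibodies) after 4–24 h at room temperature, with excitation at 320 nm and emission at 615 nm.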

The target of test [4] is T2, Avi-KRAS G12V (1-169) GppNHp/RAF1 RBD-3xFLAG (52-151) (Homo sapiens, UniProt P01116, G12V).
T2 construct: Avi-KRAS G12V (1-169)
Put plainly: Raf1-KRAS G12V-GppNHP disruption HTRF assay (Biological Example 1). It is filed as binding. The settings on record: KRAS G12V-GppNHp/RAF1 RBD HTRF. The method, boiled down:
as §1

For test [5], the target named is T3, Avi-KRAS G12R (1-169) GppNHp/RAF1 RBD-3xFLAG (52-151) (Homo sapiens, UniProt P01116, G12R).
T3 construct: Avi-KRAS G12R (1-169)
Briefly: Raf1-KRAS G12R-GppNHP disruption HTRF assay (Biological Example 1). It is filed as binding. The settings on record: KRAS G12R-GppNHp/RAF1 RBD HTRF. A digest of the protocol: as §1

Test [6] addresses T4, Avi-KRAS WT (1-169) GppNHp/RAF1 RBD-3xFLAG (52-151) (Homo sapiens, UniProt P01116).
T4 construct: Avi-KRAS WT (1-169)
Briefly: Raf1-KRAS WT-GppNHP disruption HTRF assay (Biological Example 1). It is filed as binding. The settings on record: KRAS WT-GppNHp/RAF1 RBD HTRF. A digest of the protocol:
as §1

T1 sequence (P01116 1-169 isoform P01116-2 G12D): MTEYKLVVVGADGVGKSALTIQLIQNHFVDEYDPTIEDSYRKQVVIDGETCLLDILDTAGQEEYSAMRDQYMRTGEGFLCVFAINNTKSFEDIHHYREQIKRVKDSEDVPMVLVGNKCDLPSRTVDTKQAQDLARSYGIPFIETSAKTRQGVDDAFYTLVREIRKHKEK
T2 sequence (P01116 1-169 isoform P01116-2 G12V): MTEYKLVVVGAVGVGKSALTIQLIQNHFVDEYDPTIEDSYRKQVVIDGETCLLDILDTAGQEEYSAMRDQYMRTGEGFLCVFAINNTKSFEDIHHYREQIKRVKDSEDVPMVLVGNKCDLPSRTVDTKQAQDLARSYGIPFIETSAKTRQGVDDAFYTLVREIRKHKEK
T3 sequence (P01116 1-169 isoform P01116-2 G12R): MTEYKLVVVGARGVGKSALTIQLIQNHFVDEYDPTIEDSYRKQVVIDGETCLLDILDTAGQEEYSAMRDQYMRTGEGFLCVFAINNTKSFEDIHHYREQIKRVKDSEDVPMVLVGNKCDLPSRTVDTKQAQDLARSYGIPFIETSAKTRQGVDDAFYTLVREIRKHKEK
T4 sequence (P01116 1-169 isoform P01116-2): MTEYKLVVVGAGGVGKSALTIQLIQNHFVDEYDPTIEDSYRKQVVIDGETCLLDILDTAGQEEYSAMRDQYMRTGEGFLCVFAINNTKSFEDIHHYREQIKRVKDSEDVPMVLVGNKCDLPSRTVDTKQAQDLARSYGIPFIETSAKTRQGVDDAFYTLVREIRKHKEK

What is called IC50 is the concentration that inhibits the measured activity by half. Lower therefore signals greater potency in that assay. Consider `C[C@@H]1[C@H](N(C)c2nc(OC[C@@]34CCCN3C[C@H](F)C4)nc3c(F)c(-c4ccc(F)c5sc(N)c(C#N)c45)c(C(F)(F)F)cc23)CCN1C(=O)C1(C#N)CC1` [Compound 325], for which the half-inhibitory concentration (IC50) in test [1] was 100 to 1000 nM; in test [2] it was under 100 nM; in test [3], under 100 nM; in test [4], 100 to 1000 nM; in test [5], 100 to 1000 nM; in test [6] it was 100 to 1000 nM.

Regarding `CC(=O)N1CC[C@@H](N(C)c2nc(OC[C@@]34CCCN3C[C@H](F)C4)nc3c(F)c(-c4ccc(F)c5oc(N)c(C#N)c45)c(C(F)(F)F)cc23)[C@H]1C` [Compound 326], the IC50 in test [1] is 100 to 1000 nM; in test [2], 100 to 1000 nM; in test [3] it was under 100 nM; in test [4], 1000 to 10000 nM; in test [5], 100 to 1000 nM; in test [6] it was 100 to 1000 nM.

Turning to `CN(c1nc(OC[C@@]23CCCN2C[C@H](F)C3)nc2c(F)c(-c3ccc(F)c4sc(N)c(C#N)c34)c(C(F)(F)F)cc12)C1CCS(=O)(=O)CC1` [Compound 330], the IC50 was 100 to 1000 nM in test [1]; 100 to 1000 nM in test [2]; under 100 nM in test [3]; 1000 to 10000 nM in test [4]; 1000 to 10000 nM in test [5]; 100 to 1000 nM in test [6].

For `CN1C[C@@H](N(C)c2nc(OC[C@@]34CCCN3C[C@H](F)C4)nc3c(F)c(-c4ccc(F)c5sc(N)c(C#N)c45)c(C(F)(F)F)cc23)CC1=O` [Compound 338], the IC50 was 100 to 1000 nM in test [1]; under 100 nM in test [2]; under 100 nM in test [3]; 100 to 1000 nM in test [4]; 100 to 1000 nM in test [5]; 100 to 1000 nM in test [6].

On to `CN(c1nc(OC[C@@]23CCCN2C[C@H](F)C3)nc2c(F)c(-c3ccc(F)c4sc(N)c(C#N)c34)c(C(F)(F)F)cc12)[C@@H]1CNC(=O)C1` [Compound 340], for which the half-maximal inhibitory concentration (IC50) in test [1] is 100 to 1000 nM; in test [2] it was 100 to 1000 nM; in test [3], under 100 nM; in test [4], 100 to 1000 nM; in test [5] it was 100 to 1000 nM; in test [6], 100 to 1000 nM.

As to `CN(c1nc(OC[C@@]23CCCN2C[C@H](F)C3)nc2c(F)c(-c3ccc(F)c4sc(N)c(C#N)c34)c(C(F)(F)F)cc12)C1CCCS(=O)(=O)C1` (stereo partly drawn) [Compound 341], the half-maximal inhibitory concentration (IC50) in test [1] was 100 to 1000 nM; in test [2], 100 to 1000 nM; in test [3] it was under 100 nM; in test [4], 1000 to 10000 nM; in test [5] it was 100 to 1000 nM; in test [6], 100 to 1000 nM.

For the molecule `CC(=O)N1CC[C@@](C)(N(C)c2nc(OC[C@@]34CCCN3C[C@H](F)C4)nc3c(F)c(-c4ccc(F)c5sc(N)c(C#N)c45)c(C(F)(F)F)cc23)[C@H]1C` [Compound 342], the concentration for half-maximal inhibition (IC50) in test [1] is 1000 to 10000 nM; in test [2], 100 to 1000 nM; in test [3] it was under 100 nM; in test [4], 1000 to 10000 nM; in test [5], 1000 to 10000 nM; in test [6] it was 100 to 1000 nM.

For `CCC(=O)N1CC[C@@](C)(N(C)c2nc(OC[C@@]34CCCN3C[C@H](F)C4)nc3c(F)c(-c4ccc(F)c5sc(N)c(C#N)c45)c(C(F)(F)F)cc23)[C@H]1C` [Compound 343], the IC50 is 1000 to 10000 nM in test [1]; 100 to 1000 nM in test [2]; 100 to 1000 nM in test [3]; 1000 to 10000 nM in test [4]; over 10000 nM in test [5]; 1000 to 10000 nM in test [6].

Consider `C[C@H]1N(C(=O)C2CC2)CC[C@@]1(C)N(C)c1nc(OC[C@@]23CCCN2C[C@H](F)C3)nc2c(F)c(-c3ccc(F)c4sc(N)c(C#N)c34)c(C(F)(F)F)cc12` [Compound 344], for which the IC50 in test [1] is 1000 to 10000 nM; in test [2], 100 to 1000 nM; in test [3], under 100 nM; in test [4] it was 1000 to 10000 nM; in test [5] it was over 10000 nM; in test [6] it was 100 to 1000 nM.

In the case of `CC(C)C(=O)N1CC[C@@](C)(N(C)c2nc(OC[C@@]34CCCN3C[C@H](F)C4)nc3c(F)c(-c4ccc(F)c5sc(N)c(C#N)c45)c(C(F)(F)F)cc23)[C@H]1C` [Compound 345], the IC50 was 1000 to 10000 nM in test [1]; 100 to 1000 nM in test [2]; 100 to 1000 nM in test [3]; over 10000 nM in test [4]; over 10000 nM in test [5]; 1000 to 10000 nM in test [6].

For `CC(=O)N1C[C@H](O)[C@@H](N(C)c2nc(OC[C@@]34CCCN3C[C@H](F)C4)nc3c(F)c(-c4ccc(F)c5sc(N)c(C#N)c45)c(C(F)(F)F)cc23)C1` [Compound 347], the IC50 in test [1] is under 100 nM; in test [2] it was 100 to 1000 nM; in test [3], under 100 nM; in test [4] it was 100 to 1000 nM; in test [5], 100 to 1000 nM; in test [6] it was 100 to 1000 nM.

As to `CCC(=O)N1CC[C@H](N(CC)c2nc(OC[C@@]34CCCN3C[C@H](F)C4)nc3c(F)c(-c4ccc(F)c5sc(N)c(C#N)c45)c(C(F)(F)F)cc23)C1` [Compound 349], the half-maximal inhibitory concentration (IC50) was under 100 nM in test [1]; under 100 nM in test [2]; under 100 nM in test [3]; 100 to 1000 nM in test [4]; under 100 nM in test [5]; 100 to 1000 nM in test [6].

Take `CCN(c1nc(OC[C@@]23CCCN2C[C@H](F)C3)nc2c(F)c(-c3ccc(F)c4sc(N)c(C#N)c34)c(C(F)(F)F)cc12)[C@H]1CCS(=O)(=O)C1` [Compound 350]: the IC50 in test [1] was 100 to 1000 nM; in test [2] it was under 100 nM; in test [3], under 100 nM; in test [4], 100 to 1000 nM; in test [5], 100 to 1000 nM; in test [6] it was 100 to 1000 nM.

Consider `CN(c1nc(OC[C@@]23CCCN2C[C@H](F)C3)nc2c(F)c(-c3ccc(F)c4sc(N)c(C#N)c34)c(C(F)(F)F)cc12)C12CC(CO)(C1)C2` [Compound 351], for which the IC50 in test [1] is 100 to 1000 nM; in test [2], under 100 nM; in test [3] it was under 100 nM; in test [4] it was 1000 to 10000 nM; in test [5], 100 to 1000 nM; in test [6] it was 100 to 1000 nM.

Take `Cn1ncc2c1CN(c1nc(OC[C@@]34CCCN3C[C@H](F)C4)nc3c(F)c(-c4ccc(F)c5sc(N)c(C#N)c45)c(C(F)(F)F)cc13)CC2` [Compound 352]: the IC50 was 1000 to 10000 nM in test [1]; under 100 nM in test [2]; 100 to 1000 nM in test [3]; over 10000 nM in test [4]; over 10000 nM in test [5]; over 10000 nM in test [6].

For `CN(C)C(=O)c1cnn2c1CN(c1nc(OC[C@@]34CCCN3C[C@H](F)C4)nc3c(F)c(-c4ccc(F)c5sc(N)c(C#N)c45)c(C(F)(F)F)cc13)CC2` [Compound 353], the IC50 was 100 to 1000 nM in test [1]; under 100 nM in test [2]; under 100 nM in test [3]; 1000 to 10000 nM in test [4]; 1000 to 10000 nM in test [5]; 1000 to 10000 nM in test [6].

With `N#Cc1c(N)sc2c(F)ccc(-c3c(C(F)(F)F)cc4c(N5CCc6cn[nH]c6C5)nc(OC[C@@]56CCCN5C[C@H](F)C6)nc4c3F)c12` [Compound 354], the IC50 is 1000 to 10000 nM in test [1]; under 100 nM in test [2]; 100 to 1000 nM in test [3]; over 10000 nM in test [4]; 1000 to 10000 nM in test [5]; 1000 to 10000 nM in test [6].

As for `CN(C)C(=O)c1nc2n(n1)CCN(c1nc(OC[C@@]34CCCN3C[C@H](F)C4)nc3c(F)c(-c4ccc(F)c5sc(N)c(C#N)c45)c(C(F)(F)F)cc13)C2` [Compound 356], the concentration for half-maximal inhibition (IC50) in test [1] was under 100 nM; in test [2] it was under 100 nM; in test [3], under 100 nM; in test [4], 100 to 1000 nM; in test [5], 100 to 1000 nM; in test [6], 100 to 1000 nM.

`N#Cc1c(N)sc2c(F)ccc(-c3c(C(F)(F)F)cc4c(N5C6CC5CS(=O)(=O)C6)nc(OC[C@@]56CCCN5C[C@H](F)C6)nc4c3F)c12` [Compound 357]: the IC50 in test [1] was 100 to 1000 nM; in test [2], 100 to 1000 nM; in test [3] it was under 100 nM; in test [4], 1000 to 10000 nM; in test [5], 100 to 1000 nM; in test [6], 100 to 1000 nM.

As for `CC(=O)N1CCN(c2nc(OC[C@@]34CCCN3C[C@H](F)C4)nc3c(F)c(-c4ccc(F)c5sc(N)c(C#N)c45)c(C(F)(F)F)cc23)C2CC21` (stereo partly drawn) [Compound 358], the IC50 is 1000 to 10000 nM in test [1]; under 100 nM in test [2]; under 100 nM in test [3]; 1000 to 10000 nM in test [4]; 1000 to 10000 nM in test [5]; 1000 to 10000 nM in test [6].

These data come from patent US20260042764A1, “COMPOSITIONS AND METHODS FOR INHIBITION OF KRAS” (TheRas, Inc., priority 2022, published 2026).
